According to article PMC6934184, “Selective DNA-PKcs inhibition extends the therapeutic index of localized radiotherapy and chemotherapy” (The Journal of Clinical Investigation, 2019):

Target: T1, SRC (Homo sapiens, UniProt P12931)
T1 construct: purchased Thermo Fisher Scientific (Life Technologies) SelectScreen
Experiment: SelectScreen Z'LYTE
Format: biochemical
Method in brief: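 Percent values come from Thermo SelectScreen profiling of NU5455, combining activity and binding assays. CSF1R was run in Z'LYTE format at Km app ATP, and CAMK1 in Adapta format with ATP listed at 10.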

T1 sequence (P12931 whole entry): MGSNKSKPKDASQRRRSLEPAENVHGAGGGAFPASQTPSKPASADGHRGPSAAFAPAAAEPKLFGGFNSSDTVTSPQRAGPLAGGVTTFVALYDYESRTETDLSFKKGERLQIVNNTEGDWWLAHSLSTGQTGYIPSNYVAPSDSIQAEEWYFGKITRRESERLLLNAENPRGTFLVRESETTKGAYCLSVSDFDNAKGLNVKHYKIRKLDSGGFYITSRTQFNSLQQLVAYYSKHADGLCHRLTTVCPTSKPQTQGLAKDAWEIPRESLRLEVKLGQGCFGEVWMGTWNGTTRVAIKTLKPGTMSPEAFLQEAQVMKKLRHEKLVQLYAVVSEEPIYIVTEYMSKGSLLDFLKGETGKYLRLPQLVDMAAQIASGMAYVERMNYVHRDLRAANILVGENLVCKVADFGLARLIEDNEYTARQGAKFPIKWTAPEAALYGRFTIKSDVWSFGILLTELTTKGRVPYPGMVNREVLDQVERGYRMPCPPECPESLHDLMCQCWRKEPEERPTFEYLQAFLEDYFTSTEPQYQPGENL

Work on CN(C(=O)CN1CCOCC1)c1ccc2sc3c(-c4cccc5c(=O)cc(N6CC7CCC(C6)O7)oc45)cccc3c2c1 [NU5455] yielded an inhibition at 1 µM of 9.5%.
